In paper PMC5909127, “Optimization of a “bump-and-hole” approach to allele-selective BET bromodomain inhibition” (Chemical Science, 2018):
Like-named read-outs stand apart in the source and are kept apart here.

Assays:
[1] = target: BRDT BD2 L/V (Homo sapiens, UniProt Q58F21, L306V); assay: competitive AlphaLISA; format: binding
[2] = target: BRD3 BD2 WT (Homo sapiens, UniProt Q15059); assay: competitive AlphaLISA; format: binding
[3] = target: BRDT BD1 WT (Homo sapiens, UniProt Q58F21); assay: competitive AlphaLISA; format: binding
[4] = target: BRD3 BD1 L/V (Homo sapiens, UniProt Q15059, L70V); assay: competitive AlphaLISA; format: binding
Sequence of BRD3 BD1 L/V (Q15059 24-144 L70V limits assumed): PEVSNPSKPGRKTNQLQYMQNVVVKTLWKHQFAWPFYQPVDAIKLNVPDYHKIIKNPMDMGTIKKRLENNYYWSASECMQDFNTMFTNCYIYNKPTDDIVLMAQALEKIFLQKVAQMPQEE

[5] = target: BRD2 BD2 WT (Homo sapiens, UniProt P25440); assay: competitive AlphaLISA; format: binding
Sequence of BRD2 BD2 WT (P25440 344-455): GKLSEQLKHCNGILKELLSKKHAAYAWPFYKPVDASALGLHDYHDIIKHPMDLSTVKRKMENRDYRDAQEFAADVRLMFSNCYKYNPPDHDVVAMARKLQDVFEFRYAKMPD

[6] = system: L/V BET bromodomains (BD1 and BD2 of BRD2, BRD3 and BRD4); assay: competitive AlphaLISA (Bio-JQ1 displacement); format: binding, human; conditions: for AlphaLISA pIC50 ± SD Δ: L/V minus WT; for AlphaLISA pIC50 ± SD L/V: mean and SD of all somatic bromodomains, active enantiomer concentration
[7] = target: BRDT BD1 L/V (Homo sapiens, UniProt Q58F21, L63V); assay: competitive AlphaLISA; format: binding
[8] = target: BRDT BD2 WT (Homo sapiens, UniProt Q58F21); assay: competitive AlphaLISA; format: binding
[9] = target: BRD2 BD1 WT (Homo sapiens, UniProt P25440); assay: competitive AlphaLISA; format: binding
Sequence of BRD2 BD1 WT (P25440 71-176): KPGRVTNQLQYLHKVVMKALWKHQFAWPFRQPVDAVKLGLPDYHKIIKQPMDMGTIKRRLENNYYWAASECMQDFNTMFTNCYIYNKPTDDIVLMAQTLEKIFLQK

[10] = Intrinsic Clearance; conditions: mouse liver microsomes
[11] = target: WT BET bromodomains (BD1 and BD2 of BRD2, BRD3 and BRD4); assay: competitive AlphaLISA (Bio-JQ1 displacement); format: binding, human; conditions: mean and SD of all somatic bromodomains; active enantiomer concentration
[12] = target: BRD4 BD1 L/V (Homo sapiens, UniProt O60885, L94V); assay: competitive AlphaLISA; format: binding; conditions: AlphaLISA pIC50 Value BRD4 BD1 L/V
[13] = target: BRD4 BD2 L/V (Homo sapiens, UniProt O60885, L387V); assay: competitive AlphaLISA; format: binding
[14] = target: BRD4 BD2 WT (Homo sapiens, UniProt O60885); assay: competitive AlphaLISA; format: binding
[15] = target: BRD2 BD1 L/V (Homo sapiens, UniProt P25440, L110V); assay: competitive AlphaLISA; format: binding
Sequence of BRD2 BD1 L/V (P25440 71-176 L110V limits assumed): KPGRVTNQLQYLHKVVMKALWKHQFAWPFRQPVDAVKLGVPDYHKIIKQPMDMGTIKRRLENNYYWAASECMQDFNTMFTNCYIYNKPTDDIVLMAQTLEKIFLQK

[16] = target: BRD3 BD2 L/V (Homo sapiens, UniProt Q15059, L345V); assay: competitive AlphaLISA; format: binding
Sequence of BRD3 BD2 L/V (Q15059 306-416 L345V limits assumed): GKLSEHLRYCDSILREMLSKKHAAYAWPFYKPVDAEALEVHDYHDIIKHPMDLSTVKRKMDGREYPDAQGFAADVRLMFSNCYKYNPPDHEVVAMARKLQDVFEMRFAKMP

[17] = Plasma Half-life; conditions: BALB/c, mouse, pH 7.4
[18] = target: BRD2 BD2 L/V (Homo sapiens, UniProt P25440, L383V); assay: competitive AlphaLISA; format: binding
Sequence of BRD2 BD2 L/V (P25440 344-455 L383V): as the sequence (P25440 344-455) above, with L40V counted along it

[19] = target: BRD4 BD1 WT (Homo sapiens, UniProt O60885); assay: competitive AlphaLISA; format: binding; conditions: AlphaLISA pIC50 Value BRD4 BD1 WT
[20] = target: BRD3 BD1 WT (Homo sapiens, UniProt Q15059); assay: competitive AlphaLISA; format: binding
Sequence of BRD3 BD1 WT (Q15059 24-144): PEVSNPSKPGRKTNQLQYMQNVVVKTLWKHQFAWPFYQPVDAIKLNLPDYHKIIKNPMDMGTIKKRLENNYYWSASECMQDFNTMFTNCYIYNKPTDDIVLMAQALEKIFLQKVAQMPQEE

Sequence of BRD3 BD2 WT (Q15059 306-416): as the sequence (Q15059 306-416 L345V limits assumed) above, with V40L counted along it

Row | SMILES | IC50 [2] | IC50 [3] | IC50 [4] | IC50 [5] | AlphaLISA pIC50 ± SD Δ [6] | AlphaLISA pIC50 ± SD L/V [6] | IC50 [7] | IC50 [8] | IC50 [9] | CL int [10] | AlphaLISA pIC50 ± SD WT [11] | IC50 [12] | IC50 [13] | IC50 [14] | IC50 [15] | IC50 [16] | half-life at 50 µM [17] | IC50 [18] | IC50 [19] | IC50 [20] | other results
1 | COC(=O)CC1N=C(c2ccc(Cl)cc2)c2ccc(OC)cc2-n2c(C)nnc21 (stereo not drawn) [Compound 2] | 2.51 µM | 2 µM | 0.501 µM | 2.51 µM | 0.1 ± 0.1 | 5.9 ± 0.2 | 1.58 µM | 3.98 µM | 2 µM | 1.7 ml min^–1 g^–1 | 5.8 ± 0.2 | 1 µM | 2.51 µM | 2.51 µM | 1.58 µM | 1 µM | 1.12 h | 2 µM | 1 µM | – | IC50 [1]: 3.16 µM
2 | CC[C@@H](C(=O)N(CC)CC)[C@@H]1N=C(c2ccc(Cl)cc2)c2cc(OC)ccc2-n2c(C)nnc21 (relative stereo) [Compound 20] | 25.1 µM | 39.8 µM | 0.501 µM | 15.8 µM | 1.2 ± 0.2 | 5.8 ± 0.2 | 6.31 µM | 39.8 µM | 31.6 µM | >50 ml min^–1 g^–1 | 4.6 ± 0.1 | 1.26 µM | 3.16 µM | 31.6 µM | 2 µM | 1.58 µM | > 3 h | 1.58 µM | 25.1 µM | 20 µM | IC50 [1]: 6.31 µM
3 | CCNC(=O)C[C@@H]1N=C(c2ccc(Cl)cc2)c2cc(OC)ccc2-n2c(C)nnc21 [I-BET762, reference compound] | – | – | – | – | – | – | – | – | – | – | – | – | – | – | – | – | – | – | – | – | IC50 ([7]; read-out: AlphaLISA pIC50 Value BRDT BD1 L/V (converted)): 1 µM
4 | CC[C@@H](C(=O)OC(C)(C)C)[C@@H]1N=C(c2ccc(Cl)cc2)c2ccc(OC)cc2-n2c(C)nnc21 [Compound 25] | 25.1 µM | 25.1 µM | 5.01 µM | 20 µM | 0.4 ± 0.2 | 5.0 ± 0.2 | – | 39.8 µM | 39.8 µM | 31.0 ml min^–1 g^–1 | 4.6 ± 0.1 | 7.94 µM | 20 µM | 25.1 µM | 10 µM | 10 µM | > 3 h | – | 15.8 µM | 20 µM | –
5 | C=CC[C@@H](C(=O)OC(C)(C)C)[C@@H]1N=C(c2ccc(Cl)cc2)c2cc(OC)ccc2-n2c(C)nnc21 [Compound 24] | 6.31 µM | 7.94 µM | 0.316 µM | 7.94 µM | 0.9 ± 0.2 | 6.2 ± 0.2 | 2 µM | 10 µM | 5.01 µM | 39.1 ml min^–1 g^–1 | 5.3 ± 0.1 | – | 1 µM | 3.98 µM | 1.26 µM | 0.794 µM | > 3 h | 0.501 µM | 5.01 µM | 3.98 µM | IC50 [1]: 1.58 µM
6 | CCC[C@@H](C(=O)OC)[C@@H]1N=C(c2ccc(Cl)cc2)c2cc(OC)ccc2-n2c(C)nnc21 (relative stereo) [Compound 6] | 20 µM | 31.6 µM | 6.31 µM | > 100 µM | 0.6 ± 0.2 | 5.0 ± 0.1 | 25.1 µM | – | 31.6 µM | 5.2 ml min^–1 g^–1 | 4.5 ± 0.2 | 7.94 µM | – | 63.1 µM | 10 µM | 10 µM | > 3 h | 10 µM | 25.1 µM | 20 µM | selectivity (L/V over WT, AlphaLISA) [6]: less than 10 fold
7 | C=CC[C@@H](C(=O)OC(C)(C)C)[C@@H]1N=C(c2ccc(Cl)cc2)c2ccc(OC)cc2-n2c(C)nnc21 [Compound 26] | 5.01 µM | 10 µM | 1.26 µM | 6.31 µM | 0.5 ± 0.1 | 5.8 ± 0.2 | 3.98 µM | 10 µM | 7.94 µM | 39.4 ml min^–1 g^–1 | 5.2 ± 0.2 | 1.58 µM | 3.16 µM | 10 µM | 2.51 µM | 1.26 µM | > 3 h | 1.58 µM | 6.31 µM | 3.16 µM | IC50 [1]: 2.51 µM
8 | CCN(CC)C(=O)[C@H](C)[C@@H]1N=C(c2ccc(Cl)cc2)c2cc(OC)ccc2-n2c(C)nnc21 (relative stereo) [Compound 19] | – | 39.8 µM | 0.398 µM | 25.1 µM | 1.2 ± 0.2 | 6.1 ± 0.2 | 3.98 µM | 25.1 µM | – | >50 ml min^–1 g^–1 | 4.9 ± 0.2 | 1.26 µM | 1.26 µM | 25.1 µM | 1 µM | 0.501 µM | > 3 h | 1 µM | – | 5.01 µM | IC50 [1]: 3.16 µM
9 | CC[C@@H](C(=O)OC(C)(C)C)[C@@H]1N=C(c2ccc(Cl)cc2)c2cc(OC)ccc2-n2c(C)nnc21 [Compound 23] | 5.01 µM | 6.31 µM | 0.398 µM | 5.01 µM | 0.7 ± 0.1 | 6.0 ± 0.2 | 2.51 µM | 6.31 µM | 5.01 µM | 30.7 ml min^–1 g^–1 | 5.3 ± 0.1 | 0.794 µM | 1.58 µM | 6.31 µM | 1.58 µM | 0.794 µM | > 3 h | 1 µM | 5.01 µM | 2.51 µM | IC50 [1]: 2.51 µM
10 | Cc1sc2c(c1C)C(c1ccc(Cl)cc1)=N[C@@H](CC(=O)OC(C)(C)C)c1nnc(C)n1-2 [(+)JQ1, reference compound] | – | – | – | – | –0.1 ± 0.1 | – | – | – | – | 7.5 ml min^–1 g^–1 | – | – | – | – | – | – | > 3 h | – | – | – | –
